Assay results taken from patent publication US3975529A, “Diebenzo(B,E)thiepines” (Roussel-UCLAF, priority 1974, dated 1976).
Where a name gives a salt, the structure may show the parent alone. Read-outs that look alike come from different tables or passages of the source.

Tests used:
[1] = system: antinociceptive activity of oxotremorine; assay: Antagonism of antinociceptive activity of oxotremorine, hot plate (Table III); assay type: in vivo, mice
Procedure: The antinociceptive activity of oxotremorine [Leslie, J. Pharm. Pharmae., Vol. 2 (1969), p. 248-50] was determined on mice using the hot plate method of Eddy et al [J. Pharmacol. Vol. 107 (1953), p. 385] in the presence and absence of the test product presumed to be antagonistic. The product of Example 1 was administered subcutaneously in aqueous solution at doses of 50 and 100 mg/kg to groups of 10 mice and the products of Examples 2 to 5 were subcutaneously administered in sesame oil solution at doses of 200 and 400 mg/kg to groups of 10 mice. The mice then received a single intraperitoneal injection of 0.5 mg/kg of oxotremorine either 4 hours, 1 day, 2, 3, 4 or 7 days after the test product administration. For each time considerated, the mice were placed on the hot plate one half hour after the oxotremorine administration and the time for the appearance of nociceptive refluxes consistituted by simultaneous licking of the front paws was noted. The maximum time of staying on the hot plate was fixed at 45 seconds and the percentage of animals with a reaction time (RT) less than 40 seconds in spite of oxotremorine administration was determined.

[2] = system: trembling and peripherical cholinergic manifestations provoked by tremorine; assay: Antitremorine activity (ED50); assay type: in vivo; conditions: mice; for ED50: Mus musculus, ip, i.p. aqueous solution, tremorine 20 mg/kg i.p. half an hour after
Procedure: (§1) The antagonism of the test compounds to the trembling and peripherical cholinergic manifestations provoked by tremorine [Everett et al, Science, Vol. 124 (1956), p. 79] was studied on mice.
The product of Example 1 in aqueous solution was intraperitoneally administered at doses of 0.5, 1,2 and 5 mg/kg to groups of 10 mice and the mice received an intraperitoneal injection of 20 mg/kg of tremorine half an hour after the test product. The reactions (trembling, salivation, lacrymation) of the animals were observed 10, 20, 30 and 60 minutes after the tremorine injection. At the height of the activity, the 50% efficacy dose (ED50) in which 50% of the animals were protected from the trembling and peripheral parasympathomimetic reactions of salivation and lacrymation normally provoked by tremorine injection were determined.

[3] = Acute toxicity study (LD50); design: species or system mice; conditions: mouse, in vivo, aqueous solution
Procedure: The acute toxicity of the products was determined intraperitoneally or subcutaneously on mice weighing about 20 g with the LD50 dose being calculated by the method of Litchfield et al [J. Pharmacol. exp. Therap., Vol. 96 (1949), p. 99-133]. The LD50 for the product of Example 1 in aqueous solution was about 100 mg/kg intraperitoneally after 2 days of observation and about 500 mg/kg subcutaneously after 5 days of observation.

[4] = system: trembling and peripherial cholinergic manifestations provoked by oxotremorine; assay: Antioxotremorine activity: antagonism to the trembling and peripherial cholinergic manifestations (Table II); assay type: in vivo, mice
Procedure: The antagonism of the test products to the trembling and peripherial cholinergic manifestations provoked by oxotremorine [Cho et al, J. Biochem. Biophys. Res. Commun., Vol. 5, (196l) p. 276] was studied on mice. The product of Example 1 was administered subcutaneously in aqueous solution at doses of 50 and 100 mg/kg to groups of 10 mice and the products of Example 2 were subcutaneously administered in sesame oil solution at doses of 200 and 400 mg/kg to groups of 10 mice. Control animals received no vehicle. The mice then received a single intraperitoneal dose of 0.5 mg/kg of oxotremorine either 4 hours, 1 day, 2, 3, 4 or 7 days after the injection of the test product. The reaction of the animals as in Table I were recorded 5,10 and 15 minutes after the injection of oxotremorine and the percent of inhibition of the different reactions, at the height of the effect, after the oxotremorine injection was determined as a function of time.

[5] = system: trembling and peripherical cholinergic manifestations provoked by tremorine; assay: Antitremorine activity as a function of time (Table I); assay type: in vivo, mice
Procedure: as §1
The products of Examples 2 and 3 were administered subcutaneously in sesame oil solution at doses of 200 and 400 mg/kg at a volume of 25 ml/kg to groups of 10 mice. The mice receied intraperitoneal injections of 20 mg/kg of tremorine either for 4 hours, one day, 2, 3 or 4 days after injection of the test product. […] The reactions (T-trembling; S-salivation; L-lacrymation) were noted 10, 20, 30 and 60 minutes after the tremorine injection and the percent of inhibition of the different reactions at the height of the effect after injection of tremorine were noted as a function of time.

[6] = 50 mg/kg s.c. aqueous solution, after 4 h
[7] = 50 mg/kg s.c. aqueous solution, after 1 d
[8] = 100 mg/kg s.c. aqueous solution, after 4 h
[9] = 100 mg/kg s.c. aqueous solution, after 1 d
[10] = 200 mg/kg s.c. sesame oil, after 4 h
[11] = 200 mg/kg s.c. sesame oil, after 1 d
[12] = 200 mg/kg s.c. sesame oil, after 2 d
[13] = 200 mg/kg s.c. sesame oil, after 3 d
[14] = 200 mg/kg s.c. sesame oil, after 4 d
[15] = 200 mg/kg s.c. sesame oil, after 7 d
[16] = 400 mg/kg s.c. sesame oil, after 4 h
[17] = 400 mg/kg s.c. sesame oil, after 1 d
[18] = 400 mg/kg s.c. sesame oil, after 2 d
[19] = 400 mg/kg s.c. sesame oil, after 3 d
[20] = 400 mg/kg s.c. sesame oil, after 4 d
[21] = 400 mg/kg s.c. sesame oil, after 7 d

Compound: OCCN1C2CCC1CC(=C1c3ccccc3CSc3ccccc31)C2 (racemic) [Example 1, dl N-(β-hydroxyethyl)-11-(3'-nortropylidene)-6,11-dihydrodibenzo(b,e)thiepine hydrochloride]
- % of animals with a RT less than 40 seconds [1, 6]: 100%
- % of animals with a RT less than 40 seconds [1, 7]: 10%
- % of animals with a RT less than 40 seconds [1, 8]: 100%
- % of animals with a RT less than 40 seconds [1, 9]: 20%
- antagonistic activity against antinociceptive activity of oxotremorine (in words) ([1]; s.c., mice, Table III): important antagonistic activity against antinociceptive activity of oxotremorine which is manifested for several hours
- ED50 ([2]; read-out: ED50 for parasympathomimetic reactions (salivation and lacrymation)): 1 to 2 mg/kg
- ED50 ([2]; read-out: ED50 for trembling): 1 mg/kg
- anticholinergic activity (in words) ([2]; antitremorine test, i.p.): important anticholinergic activity
- LD50 at 48 h ([3]; ip, after 2 days of observation): ~100 mg/kg
- LD50 at 120 h ([3]; sc, after 5 days of observation): ~500 mg/kg
- % inhibition of reactions: L (lacrymation) [4, 6]: 100%
- % inhibition of reactions: S (salivation) [4, 6]: 100%
- % inhibition of reactions: T (trembling) [4, 6]: 100%
- % inhibition of reactions: L (lacrymation) [4, 7]: 0%
- % inhibition of reactions: S (salivation) [4, 7]: 0%
- % inhibition of reactions: T (trembling) [4, 7]: 0%
- % inhibition of reactions: L (lacrymation) [4, 8]: 100%
- % inhibition of reactions: S (salivation) [4, 8]: 100%
- % inhibition of reactions: T (trembling) [4, 8]: 100%
- % inhibition of reactions: L (lacrymation) [4, 9]: 0%
- % inhibition of reactions: S (salivation) [4, 9]: 0%
- % inhibition of reactions: T (trembling) [4, 9]: 0%

Compound: CCC(=O)OCCN1C2CCC1CC(=C1c3ccccc3CSc3ccccc31)C2 (racemic) [Example 2, dl N-(β-propionyloxyethyl)-11-(3'-nortropylidene)-6,11-dihydrodibenzo(b,e)thiepine]
- % of animals with a RT less than 40 seconds [1, 10]: 100%
- % of animals with a RT less than 40 seconds [1, 11]: 100%
- % of animals with a RT less than 40 seconds [1, 12]: 90%
- % of animals with a RT less than 40 seconds [1, 13]: 50%
- % of animals with a RT less than 40 seconds [1, 14]: 60%
- % of animals with a RT less than 40 seconds [1, 15]: 30%
- % of animals with a RT less than 40 seconds [1, 16]: 100%
- % of animals with a RT less than 40 seconds [1, 17]: 100%
- % of animals with a RT less than 40 seconds [1, 18]: 100%
- % of animals with a RT less than 40 seconds [1, 19]: 80%
- % of animals with a RT less than 40 seconds [1, 20]: 90%
- % of animals with a RT less than 40 seconds [1, 21]: 20%
- % inhibition of reactions: L (lacrymation) [5, 10]: 100%
- % inhibition of reactions: S (salivation) [5, 10]: 90%
- % inhibition of reactions: T (trembling) [5, 10]: 100%
- % inhibition of reactions: L (lacrymation) [5, 11]: 100%
- % inhibition of reactions: S (salivation) [5, 11]: 90%
- % inhibition of reactions: T (trembling) [5, 11]: 90%
- % inhibition of reactions: L (lacrymation) [5, 12]: 40%
- % inhibition of reactions: S (salivation) [5, 12]: 0%
- % inhibition of reactions: T (trembling) [5, 12]: 0%
- % inhibition of reactions: L (lacrymation) [5, 13]: 100%
- % inhibition of reactions: S (salivation) [5, 13]: 50%
- % inhibition of reactions: T (trembling) [5, 13]: 20%
- % inhibition of reactions: L (lacrymation) [5, 14]: 60%
- % inhibition of reactions: S (salivation) [5, 14]: 0%
- % inhibition of reactions: T (trembling) [5, 14]: 0%
- % inhibition of reactions: L (lacrymation) [5, 16]: 100%
- % inhibition of reactions: S (salivation) [5, 16]: 100%
- % inhibition of reactions: T (trembling) [5, 16]: 100%
- % inhibition of reactions: L (lacrymation) [5, 17]: 100%
- % inhibition of reactions: S (salivation) [5, 17]: 100%
- % inhibition of reactions: T (trembling) [5, 17]: 100%
- % inhibition of reactions: L (lacrymation) [5, 18]: 100%
- % inhibition of reactions: S (salivation) [5, 18]: 70%
- % inhibition of reactions: T (trembling) [5, 18]: 40%
- % inhibition of reactions: L (lacrymation) [5, 19]: 100%
- % inhibition of reactions: S (salivation) [5, 19]: 20%
- % inhibition of reactions: T (trembling) [5, 19]: 10%
- % inhibition of reactions: L (lacrymation) [5, 20]: 60%
- % inhibition of reactions: S (salivation) [5, 20]: 90%
- % inhibition of reactions: T (trembling) [5, 20]: 50%
- antitremorine activity (in words) ([5]; s.c. sesame oil, mice, Table I): prolonged antitremorine activity
- % inhibition of reactions: L (lacrymation) [4, 10]: 100%
- % inhibition of reactions: S (salivation) [4, 10]: 80%
- % inhibition of reactions: T (trembling) [4, 10]: 80%
- % inhibition of reactions: L (lacrymation) [4, 11]: 100%
- % inhibition of reactions: S (salivation) [4, 11]: 90%
- % inhibition of reactions: T (trembling) [4, 11]: 100%
- % inhibition of reactions: L (lacrymation) [4, 12]: 70%
- % inhibition of reactions: S (salivation) [4, 12]: 30%
- % inhibition of reactions: T (trembling) [4, 12]: 30%
- % inhibition of reactions: L (lacrymation) [4, 13]: 30%
- % inhibition of reactions: S (salivation) [4, 13]: 10%
- % inhibition of reactions: T (trembling) [4, 13]: 0%
- % inhibition of reactions: L (lacrymation) [4, 14]: 11%
- % inhibition of reactions: S (salivation) [4, 14]: 0%
- % inhibition of reactions: L (lacrymation) [4, 15]: 10%
- % inhibition of reactions: S (salivation) [4, 15]: 0%
- % inhibition of reactions: T (trembling) [4, 15]: 0%
- % inhibition of reactions: L (lacrymation) [4, 16]: 100%
- % inhibition of reactions: S (salivation) [4, 16]: 100%
- % inhibition of reactions: T (trembling) [4, 16]: 100%
- % inhibition of reactions: L (lacrymation) [4, 17]: 100%
- % inhibition of reactions: S (salivation) [4, 17]: 100%
- % inhibition of reactions: T (trembling) [4, 17]: 100%
- % inhibition of reactions: L (lacrymation) [4, 18]: 80%
- % inhibition of reactions: S (salivation) [4, 18]: 60%
- % inhibition of reactions: T (trembling) [4, 18]: 70%
- % inhibition of reactions: L (lacrymation) [4, 19]: 10%
- % inhibition of reactions: S (salivation) [4, 19]: 20%
- % inhibition of reactions: T (trembling) [4, 19]: 0%
- % inhibition of reactions: L (lacrymation) [4, 20]: 67%
- % inhibition of reactions: S (salivation) [4, 20]: 20%
- % inhibition of reactions: T (trembling) [4, 20]: 20%
- % inhibition of reactions: L (lacrymation) [4, 21]: 20%
- % inhibition of reactions: S (salivation) [4, 21]: 20%
- % inhibition of reactions: T (trembling) [4, 21]: 10%
- antioxotremorine activity (in words) ([4]; s.c. sesame oil, mice, Table II): prolonged antioxotremorine activity
